In patent US7569539B2, “Oral administration of calcitonin” (Novartis AG, priority 2002, dated 2009):
Where two headings read alike, the source gives them in different places.

Tests used:
[1] = Effect of meal timing on plasma sCT after oral sCT/5-CNAC tablet in human subjects (Example 7); assay type: in vivo; conditions: for AUC / Cmax: both sexes, human, plasma, po, 1 mg, oral tablet 1 mg sCT + 5-CNAC disodium salt, plasma sCT; for AUC: read-out: Mean AUC ± SD; for Cmax: read-out: Mean Cmax ± SD
Experimental: The effect of administration of a tablet formulation of sCT in combination with 5-CNAC disodium salt at various time intervals relative to meals is measured in human subjects.
The tablet formulation employed is a formulation according to Example 5, comprising 1 mg sCT and 5-CNAC disodium salt in an amount corresponding to […] of 5-CNAC.
The study employs a seven-period, randomized, open-label, balanced Latin-square, crossover design. Twenty-one human healthy adult subjects (7 males, 7 pre-menopausal females and 7 post-menopausal females), between the ages of 18 and 65 years of age are involved. Pre- and post-menopausal females are matched for height (±0.5 cm) and weight (±8%).
The study consists of a screening period (−21 to −2 days prior to dosing), a baseline period (24-hour period prior to dosing, or day −1), and a treatment period comprised of seven daily single-dose administrations. Subjects are instructed to fast for at least 8 hours prior to undergoing screening evaluations so that blood samples can be drawn for bioanalytical testing. At baseline, subjects are admitted to the study center at least 12 hours prior to dosing and remain domiciled until study completion (one day following the final dose of study drug, or study day 8). The interdose interval between each treatment will be approximately 24 hours. Subjects are randomized according to the treatment allocation schedule to receive a single oral dose under either fasted or fed conditions. Under fed conditions, meal times vary relative to a fixed dosing time, in order to assess the effect of varying meal and dose intervals on drug pharmacokinetics.
During the treatment period, subjects fast overnight for a minimum of 10 hours prior to dosing, except when the specified treatment condition requires a meal to be served pre-dose. Dosing occurs between 9 and 10 AM for seven consecutive days. Meal times vary around a fixed dosing interval over a seven-day treatment period in order to determine optimal dosing times relative to food intake. Included is the administration of study drug under fasting conditions, which will serve as the reference condition to assess drug pharmacokinetics under varying meal and dose intervals, as well as study drug administration with meals, to determine the extent of food interaction.
The order in which subjects are initially dosed remains consistent throughout the study, so that the first subject dosed in period 1 remains the first subject dosed across all treatment conditions. Except where fasting is the specified treatment condition, subjects receive a standardized FDA (or equivalent) high-fat breakfast at a different time each day relative to dosing. Subjects whose treatment assignment is to fast, continue fasting for at least four hours post-dose, after which they may receive a standard meal at the specified time. Sampling for pharmacokinetic assessments are performed at scheduled intervals for up to 8 hours post-dose. If pharmacokinetic sampling times coincide with the start of a meal, sampling occurs first. Subjects are discharged from the study center one day following the final dose of study drug (day 8), after the completion of all safety evaluations.
Pharmacokinetic blood sampling is performed each day at the following timepoints (unless otherwise specified, when sampling times coincide with the start of a meal, sampling is done first): pre-dose (5 mL blood on each treatment day, lithium-heparin tubes to yield plasma), and then 5, 10, 15, 30, 45, 60, 90, 120, 180 and 240 minutes post-dose (3 mL blood), lithium-heparin tube to yield plasma). For treatment conditions B, C, D and E (see table below) one additional sample (3 mL) is obtained at 5 minutes after the start of the meal. For treatment condition E, the 10 minute sample also represents the 5-minute post-meal sample. For treatment B only, one additional sample is obtained at 15 minutes after the start of the meal (i.e., at 75 minutes post-dose). […]

[2] = as above; assay type: in vivo; conditions: tablet 1 mg sCT + 5-CNAC disodium salt (equivalent to 200 mg 5-CNAC), 5 to 60 minutes prior to a meal instead of with a meal
[3] = Treatment group A: after overnight fast
[4] = Treatment group B: 1 hour pre-meal
[5] = Treatment group C: 30 minutes pre-meal
[6] = Treatment group D: 15 minutes pre-meal
[7] = Treatment group E: 5 minutes pre-meal
[8] = Treatment group G: 2.5 hours post-meal

## CC(C)C[C@H](NC(=O)[C@H](CCCCN)NC(=O)CNC(=O)[C@H](CC(C)C)NC(=O)[C@@H](NC(=O)[C@@H]1CSSC[C@H](N)C(=O)N[C@@H](CO)C(=O)N[C@@H](CC(N)=O)C(=O)N[C@@H](CC(C)C)C(=O)N[C@@H](CO)C(=O)N[C@@H]([C@@H](C)O)C(=O)N1)C(C)C)C(=O)N[C@@H](CO)C(=O)N[C@@H](CCC(N)=O)C(=O)N[C@@H](CCC(=O)O)C(=O)N[C@@H](CC(C)C)C(=O)N[C@@H](Cc1c[nH]cn1)C(=O)N[C@@H](CCCCN)C(=O)N[C@@H](CC(C)C)C(=O)N[C@@H](CCC(N)=O)C(=O)N[C@H](C(=O)N[C@@H](Cc1ccc(O)cc1)C(=O)N1CCC[C@H]1C(=O)N[C@@H](CCCNC(=N)N)C(=O)N[C@H](C(=O)N[C@@H](CC(N)=O)C(=O)N[C@H](C(=O)NCC(=O)N[C@@H](CO)C(=O)NCC(=O)N[C@H](C(=O)N1CCC[C@H]1C(N)=O)[C@@H](C)O)[C@@H](C)O)[C@@H](C)O)[C@@H](C)O [sCT, salmon calcitonin]
[1]; Groups C and D: administered either 15 or 30 minutes before a meal
  plasma levels of sCT: maximum plasma levels
[1]; administration with a meal (Group F)
  plasma levels of sCT: negligible
[1]; [3]
  AUC: 0.0663 ± 0.0422 ng·h/mL
  Cmax: 0.139 ± 0.0743 ng/mL
[1]; [4]
  AUC: 0.0634 ± 0.0379 ng·h/mL
  Cmax: 0.136 ± 0.0647 ng/mL
[1]; [5]
  AUC: 0.079 ± 0.0793 ng·h/mL
  Cmax: 0.162 ± 0.142 ng/mL
[1]; [6]
  AUC: 0.0721 ± 0.0451 ng·h/mL
  Cmax: 0.162 ± 0.0679 ng/mL
[1]; [7]
  AUC: 0.0604 ± 0.0674 ng·h/mL
  Cmax: 0.149 ± 0.151 ng/mL
[1]; Treatment group F: with meal
  AUC: 0.0126 ± 0.0185 ng·h/mL
  Cmax: 0.024 ± 0.0267 ng/mL
[1]; [8]
  AUC: 0.0611 ± 0.114 ng·h/mL
  Cmax: 0.0798 ± 0.134 ng/mL
[2]
  increase (Cmax and AUC) in oral absorption: ~5 fold
